According to patent US10882856B2 (BeiGene, Ltd., priority 2017, dated 2021):
Counter-ions that a name gives are not always drawn.

What was measured:
[1] = target: T1, cellular TDO2 in HEK293-TDO2 cells (Homo sapiens, UniProt P48775); assay: 293-TDO2 cell-based assay (Kyn colorimetric); details: 48 hours of incubation
T1 construct: expressed in transfected cells; host or cells: HEK293 (ATCC), stably transfected
Procedure, shortened: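 HEK293 cells stably expressing TDO2 (10000/well, phenol red-free DMEM, 10% FBS) were dosed 4 h after plating and incubated 48 h at 37° C. Supernatant Kyn was measured after TCA precipitation by 4-(dimethylamino)benzaldehyde colour at 480 nm. IC50 came from four-parameter logistic fits.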

IDO1 [2] = target: T2, IDO1 (Homo sapiens, UniProt P14902); assay: IDO1 enzymatic assay; assay type: biochemical; design: His tag (N); made in house; host or cells: E. coli; details: read-out: Enzyme IC50 IDO1
Procedure, shortened: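 IC50 values reflect remaining IDO1 activity over increasing compound concentrations. The enzyme (50 nM, N-terminally His-tagged, purified from E. coli) was incubated for 1.5 hours at 24 °C with compound, 1.3 mM D-tryptophan, 5 mM L-ascorbic acid, methylene blue and 0.4 mg/mL catalase in 50 mM potassium phosphate pH 7.5 with 0.1% BSA. The slope of N'-formylkynurenine formation, read continuously at 321 nm for 1 hour, served as activity.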

IDO1 [3] = target: T2, IDO1; assay: Hela cell-based IDO1 assay; details: Hela cells
Procedure, shortened: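 HeLa cells were plated at 8000 per well in 96-well plates containing phenol red-free DMEM with 10% FBS, and after 4 hours compound dilutions made in DMSO were added together with IFN-γ (final 100 ng/mL) and 0.4 mM L-Trp before 48 hours at 37 °C, 5% CO2. Supernatants were deproteinised with trichloroacetic acid, mixed with 2% 4-(dimethylamino)benzaldehyde and read at 480 nm for kynurenine. Four-parameter logistic fits were run in XLfit. Potency was derived from these fits.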

T2 sequence (P14902 whole entry): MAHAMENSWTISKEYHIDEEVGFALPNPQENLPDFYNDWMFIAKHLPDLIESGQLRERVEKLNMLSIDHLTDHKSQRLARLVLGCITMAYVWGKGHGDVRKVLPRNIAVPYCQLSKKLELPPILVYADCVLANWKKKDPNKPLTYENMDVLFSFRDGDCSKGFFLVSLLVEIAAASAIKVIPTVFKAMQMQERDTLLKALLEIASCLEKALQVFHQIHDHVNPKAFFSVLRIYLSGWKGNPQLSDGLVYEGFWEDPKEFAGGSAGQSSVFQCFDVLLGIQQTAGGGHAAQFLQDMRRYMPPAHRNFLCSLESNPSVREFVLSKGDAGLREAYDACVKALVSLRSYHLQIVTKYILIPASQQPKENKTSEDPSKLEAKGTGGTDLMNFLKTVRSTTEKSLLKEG
T1 sequence (P48775 whole entry): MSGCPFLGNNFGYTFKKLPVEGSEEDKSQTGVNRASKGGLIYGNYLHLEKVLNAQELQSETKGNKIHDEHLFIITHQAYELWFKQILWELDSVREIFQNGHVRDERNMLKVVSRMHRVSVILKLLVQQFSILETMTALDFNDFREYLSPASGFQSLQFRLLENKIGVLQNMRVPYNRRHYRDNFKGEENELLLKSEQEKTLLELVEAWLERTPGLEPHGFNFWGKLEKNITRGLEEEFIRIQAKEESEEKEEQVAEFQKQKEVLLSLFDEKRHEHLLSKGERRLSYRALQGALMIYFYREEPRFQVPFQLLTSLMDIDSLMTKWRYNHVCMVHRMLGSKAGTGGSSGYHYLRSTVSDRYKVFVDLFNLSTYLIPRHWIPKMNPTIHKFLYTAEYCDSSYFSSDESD

OC(c1c(C2CC2)ccc2cncn12)C1CCC(c2ccc(OC3COC3)cc2)CC1 (stereo not drawn) [Example D109, (6-cyclopropylimidazo[1,5-a]pyridin-5-yl)(4-(4-(oxetan-3-yloxy)phenyl)cyclohexyl)methanol]
EC50 [1]: > 10 µM
IC50 (IDO1 [2]): 39 nM
EC50 (IDO1 [3]): 206 nM

N#Cc1ccc(C2CCC(C(O)c3c(C4CC4)ccc4cncn34)CC2)cc1 (stereo not drawn) [Example D110, 4-(4-((6-cyclopropylimidazo[1,5-a]pyridin-5-yl)(hydroxy)methyl)cyclohexyl)benzonitrile]
EC50 [1]: > 10 µM
IC50 (IDO1 [2]): 40 nM
EC50 (IDO1 [3]): 373 nM

O=C(O)c1ccc(C2CCC(C(O)c3c(C4CC4)ccc4cncn34)CC2)cc1 (stereo not drawn) [Example D111, 4-(4-((6-cyclopropylimidazo[1,5-a]pyridin-5-yl)(hydroxy)methyl)cyclohexyl)benzoic acid]
EC50 [1]: > 10 µM
IC50 (IDO1 [2]): 25 nM
EC50 (IDO1 [3]): 470 nM

Oc1ccccc1C1CCC(C(O)c2c(C3CC3)ccc3cncn23)CC1 (stereo not drawn) [Example D112, 2-(4-((6-cyclopropylimidazo[1,5-a]pyridin-5-yl)(hydroxy)methyl)cyclohexyl)phenol]
EC50 [1]: > 10 µM
IC50 (IDO1 [2]): 43 nM
EC50 (IDO1 [3]): 50 nM

COc1ccccc1C1CCC(C(O)c2c(C3CC3)ccc3cncn23)CC1 (stereo not drawn) [Example D113, (6-cyclopropylimidazo[1,5-a]pyridin-5-yl)(4-(2-methoxyphenyl)cyclohexyl)methanol]
EC50 [1]: > 10 µM
IC50 (IDO1 [2]): 43 nM
EC50 (IDO1 [3]): 95 nM

OC(c1c(C2CC2)ccc2cncn12)C1CCC(c2ccc(OC3CCOCC3)cc2)CC1 (stereo not drawn) [Example D114, (6-cyclopropylimidazo[1,5-a]pyridin-5-yl)(4-(4-((tetrahydro-2H-pyran-4-yl)oxy)phenyl)cyclohexyl)methanol]
EC50 [1]: > 10 µM
IC50 (IDO1 [2]): 32 nM
EC50 (IDO1 [3]): 155 nM

O[C@H](c1c(C2CC2)ccc2cncn12)[C@H]1CC[C@@H](c2ccc(OC3CCOCC3)cc2)CC1 [Example D114d, (S)-(6-cyclopropylimidazo[1,5-a]pyridin-5-yl)((1 s,4R)-4-(4-((tetrahydro-2H-pyran-4-yl)oxy)phenyl)cyclohexyl)methanol]
EC50 [1]: > 10 µM
IC50 (IDO1 [2]): 1400 nM
EC50 (IDO1 [3]): 5110 nM

CC(C)c1ccc2cncn2c1C(O)C1CCC(c2ccc(Cl)cc2)CC1 (stereo not drawn) [Example D115, (4-(4-chlorophenyl)cyclohexyl)(6-isopropylimidazo[1,5-a]pyridin-5-yl)methanol]
EC50 [1]: > 10 µM
IC50 (IDO1 [2]): 57 nM
EC50 (IDO1 [3]): 157 nM

OC(c1c(C2CC2)ccc2cncn12)C1CCC(c2cccc(Cl)c2)CC1 (stereo not drawn) [Example D116, (4-(3-chlorophenyl)cyclohexyl)(6-cyclopropylimidazo[1,5-a]pyridin-5-yl)methanol]
EC50 [1]: > 10 µM
IC50 (IDO1 [2]): 44 nM
EC50 (IDO1 [3]): 107 nM

OC(c1c(C2CC2)ccc2cncn12)C1CCC(c2ccccc2Cl)CC1 (stereo not drawn) [Example D117]
EC50 [1]: > 10 µM
IC50 (IDO1 [2]): 48 nM
EC50 (IDO1 [3]): 275 nM

OC(c1c(C2CC2)ccc2cncn12)C1CCC(c2ccc(Br)cc2)CC1 (stereo not drawn) [Example D118, (4-(4-bromophenyl)cyclohexyl)(6-cyclopropylimidazo[1,5-a]pyridin-5-yl)methanol]
EC50 [1]: > 10 µM
IC50 (IDO1 [2]): 44 nM
EC50 (IDO1 [3]): 546 nM

OC(c1c(C2CC2)ccc2cncn12)C1CCC(c2ccc(-c3ccccc3)cc2)CC1 (stereo not drawn) [Example D119, (4-([1,1′-biphenyl]-4-yl)cyclohexyl)(6-cyclopropylimidazo[1,5-a]pyridin-5-yl)methanol]
EC50 [1]: > 10 µM
IC50 (IDO1 [2]): 64 nM
EC50 (IDO1 [3]): 668 nM

OC(c1c(C2CC2)ccc2cncn12)C1CCC(c2ccc(Oc3ccccc3)cc2)CC1 (stereo not drawn) [Example D120, (6-cyclopropylimidazo[1,5-a]pyridin-5-yl)(4-(4-phenoxyphenyl)cyclohexyl)methanol]
EC50 [1]: > 10 µM
IC50 (IDO1 [2]): 100 nM
EC50 (IDO1 [3]): 700 nM

O=C(Nc1ccc(C2CCC(C(O)c3c(C4CC4)ccc4cncn34)CC2)cc1)OCc1ccccc1 (stereo not drawn) [Example D121]
EC50 [1]: > 10 µM
IC50 (IDO1 [2]): 73 nM
EC50 (IDO1 [3]): 606 nM

Nc1ccc(C2CCC(C(O)c3c(C4CC4)ccc4cncn34)CC2)cc1 (stereo not drawn) [Example D122, (4-(4-aminophenyl)cyclohexyl)(6-cyclopropylimidazo[1,5-a]pyridin-5-yl)methanol]
EC50 [1]: > 10 µM
IC50 (IDO1 [2]): 28 nM
EC50 (IDO1 [3]): 228 nM

O=Cc1ccc(C2CCC(C(O)c3c(C4CC4)ccc4cncn34)CC2)cc1 (stereo not drawn) [Example D123, 4-(4-((6-cyclopropylimidazo[1,5-a]pyridin-5-yl)(hydroxy)methyl)cyclohexyl)benzaldehyde]
EC50 [1]: > 10 µM
IC50 (IDO1 [2]): 54 nM
EC50 (IDO1 [3]): 462 nM

CNC(=O)c1ccc(C2CCC(C(O)c3c(C4CC4)ccc4cncn34)CC2)cc1 (stereo not drawn) [Example D124, 4-(4-((6-cyclopropylimidazo[1,5-a]pyridin-5-yl)(hydroxy)methyl)cyclohexyl)-N-methylbenzamide]
EC50 [1]: > 10 µM
IC50 (IDO1 [2]): 22 nM
EC50 (IDO1 [3]): 188 nM

CN(C)C(=O)c1ccc(C2CCC(C(O)c3c(C4CC4)ccc4cncn34)CC2)cc1 (stereo not drawn) [Example D125, 4-(4-((6-cyclopropylimidazo[1,5-a]pyridin-5-yl)(hydroxy)methyl)cyclohexyl)-N,N-dimethylbenzamide]
EC50 [1]: > 10 µM
IC50 (IDO1 [2]): 24 nM
EC50 (IDO1 [3]): 843 nM

OC(c1c(C2CC2)ccc2cncn12)C1CCC(c2ccc(F)c(F)c2)CC1 (stereo not drawn) [Example D126, (6-cyclopropylimidazo[1,5-a]pyridin-5-yl)(4-(3,4-difluorophenyl)cyclohexyl)methanol]
EC50 [1]: > 10 µM
IC50 (IDO1 [2]): 40 nM
EC50 (IDO1 [3]): 64 nM

OC(c1c(C2CC2)ccc2cncn12)C1CCC(c2ccc(F)cc2F)CC1 (stereo not drawn) [Example D127, (6-cyclopropylimidazo[1,5-a]pyridin-5-yl)(4-(2,4-difluorophenyl)cyclohexyl)methanol]
EC50 [1]: > 10 µM
IC50 (IDO1 [2]): 40 nM
EC50 (IDO1 [3]): 170 nM

OC(c1c(C2CC2)ccc2cncn12)C1CCC(c2ccc(Cl)c(F)c2)CC1 (stereo not drawn) [Example D128, (4-(4-chloro-3-fluorophenyl)cyclohexyl)(6-cyclopropylimidazo[1,5-a]pyridin-5-yl)methanol]
EC50 [1]: > 10 µM
IC50 (IDO1 [2]): 41 nM
EC50 (IDO1 [3]): 260 nM

OC(c1c(C2CC2)ccc2cncn12)C1CCC(c2ccc(F)c(Cl)c2)CC1 (stereo not drawn) [Example D129, (4-(3-chloro-4-fluorophenyl)cyclohexyl)(6-cyclopropylimidazo[1,5-a]pyridin-5-yl)methanol]
EC50 [1]: > 10 µM
IC50 (IDO1 [2]): 53 nM
EC50 (IDO1 [3]): 148 nM

OC(c1c(C2CC2)ccc2cncn12)C1CCC(c2ccc(F)cc2Cl)CC1 (stereo not drawn) [Example D130, (4-(2-chloro-4-fluorophenyl)cyclohexyl)(6-cyclopropylimidazo[1,5-a]pyridin-5-yl)methanol]
EC50 [1]: > 10 µM
IC50 (IDO1 [2]): 50 nM
EC50 (IDO1 [3]): 279 nM

OC(c1c(C2CC2)ccc2cncn12)C1CCC(c2ccc(Cl)cc2F)CC1 (stereo not drawn) [Example D131, (4-(4-chloro-2-fluorophenyl)cyclohexyl)(6-cyclopropylimidazo[1,5-a]pyridin-5-yl)methanol]
EC50 [1]: > 10 µM
IC50 (IDO1 [2]): 47 nM
EC50 (IDO1 [3]): 578 nM

O[C@@H](c1c(C2CC2)ccc2cncn12)[C@H]1CC[C@H](c2ccc(Cl)cc2F)CC1 [Example D131b, (R)-((1r,4R)-4-(4-chloro-2-fluorophenyl)cyclohexyl)(6-cyclopropylimidazo[1,5-a]pyridin-5-yl)methanol hydrochloride]
EC50 [1]: > 10 µM
IC50 (IDO1 [2]): > 10000 nM
EC50 (IDO1 [3]): 6490 nM
